Values quoted from earlier work, collected in patent US9603775B2, “Delamination resistant pharmaceutical glass containers containing active pharmaceutical ingredients” (Corning Incorporated, priority 2013, dated 2017).

Assays:
[1] = tested on: IL-12 and IL-23 mediated signaling and cytokine cascades; details: in vitro models

Compound	effect on IL-12 and IL-23 mediated signaling and cytokine cascades [1]	effect on antigen presentation (26S proteasome)
ustekinumab: human IgG1κ monoclonal antibody that binds the p40 subunit of IL-12 and IL-23 cytokines	disrupt IL-12 and IL-23 mediated signaling and cytokine cascades	–
CC(C)C[C@H](NC(=O)[C@H](Cc1ccccc1)NC(=O)c1cnccn1)B(O)O [bortezomib, [(1R)-3-methyl-1-[[(2S)-1-oxo-3-phenyl-2-[(pyrazinylcarbonyl)amino]propyl]amino]butyl]boronic acid]	–	inhibited in a dose dependent manner
